According to patent US4094966A, “Iodobenzene derivatives and X-ray contrast media containing the same” (priority 1974, dated 1978):

Tests used:
[1] = Osmolality determination (FISKE osmometer); format: physicochemical; conditions: solutions containing 28% iodine; methylglucamine salts; extrapolation from successive dilutions
Method: Osmolality is determined by extrapolation of the values obtained on successive dilutions of solutions containing 28% or 38% iodine.
Osmolality readings are made with a FISKE Model 230/D/330 D osmometer. This apparatus indicates this measurement as milliosmoles per kg of solution. Its operation is based on the principles of cryoscopy. The determinations were made with solutions containing 28% iodine.

mice = assay: Acute toxicity determination, intravenous toxicity in mice; format: in vivo, mice (Swiss origin, IOPS mice of OFI strain); conditions: 24 hours
Method: Intravenous toxicity determination was effected in Swiss origin, IOPS mice of OFI strain.
Each dosage level was injected to a lot of 10 mice comprising 5 male and 5 female mice.
Injections were made manually, in the caudal vein, at a rate of 2 ml/minute.
Death rate during the 24 hours after injection was recorded.

femoral artery = assay: Effect on the femoral rate of flow (peripheral vasodilatation); format: in vivo, mongrels
Method: This test was carried out in Nembutal-anesthetized male or female 7-12 mongrels.
Nembutal was used at a dosage of 30 mg/kg, with Vetranquil pre-medication, (overall intravenous injection of 2.5 mg), respiration was spontaneous.
Rate of flow variations were recorded at the level of the right or left fermoral artery, by means of a Statham electromagnetic sensor.
The injections were made in a collateral of the fermoral artery, downstream of the sensor, by means of a catheter mounted by the retrograde route, so as not to perturb the blood flow.
The injections were made under a constant volume of 1.5 ml administered within 3-5 seconds.
The same volume of an iostonic sodium chloride solution was also injected.

[2] = Biliary clearance test in cats; format: in vivo; design: scale not given here
Method: This test was conducted in male or female adult cats weighing 3-4 kg.
The test material was injected intravenously, at a dosage of 0.10 g/kg iodine at the level of the internal saphenous vein. Clearance of the material was monitored by X-ray control.
X-ray pictures visualizing the gall bladder and the bladder were taken at the following times: 30 minutes, 1 hour, 2 hours, 3 hours, 4 hours, 5 hours, 6 hours.

[3] = 1.5 ml into collateral of femoral artery, 28% I, Mgl salt
[4] = i.v., 0.10 g I/kg, 28% I, Mgl salt

Structure (SMILES)	Osmolality [1]	Acute toxicity in mice, i.v. (mice; 28% I, Mgl salt)	Peripheral vasodilatation, femoral rate of flow (femoral artery; [3])	Biliary clearance in cat, i.v. [2, 4]	also measured
CNC(=O)c1c(I)c(NC(=O)CCCNC(=O)c2c(I)c(C(=O)NCCO)c(I)c(N(C)C(C)=O)c2I)c(I)c(C(=O)O)c1I [Compound 7, 2,4,6-triiodo-3-N-methylcarbamyl-5-(2,4,6-triiodo-3-N-hydroxyethylcarbamyl-5-N-methylacetamido-benzoyl)γ-aminobutyrylamino-benzoic acid]	525 mosm/kg	5 grams I/kg	++	0	–
CNC(=O)c1c(I)c(C(=O)NCCCCCC(=O)Nc2c(I)cc(I)c(C(=O)O)c2I)c(I)c(N(C)C(C)=O)c1I [Compound 10, 2,4,6-triiodo-5-(2,4,6-triiodo-3-N-methylcarbamyl-5-N-methylacetamido-benzoyl)-ε-aminocaproylamino-benzoic acid]	420 mosm/kg	1.5 grams I/kg	++++	++++	–
CNC(=O)c1c(I)c(NC(=O)CCCNC(=O)c2c(I)cc(I)c(N(C)C(C)=O)c2I)c(I)c(C(=O)O)c1I [Compound 11, 2,4,6-triiodo-3-N-methylcarbamyl-5-(2,4,6-triiodo-3-N-methylacetamido-benzoyl)-γ-aminobutyrylaminobenzoic acid]	390 mosm/kg	2.3 grams I/kg	++++	+++	–
CNC(=O)c1c(I)c(NC(=O)CNC(=O)c2c(I)c(NC(=O)CNC(=O)c3c(I)c(NC(C)=O)c(I)c(C(=O)NC)c3I)c(I)c(N(C)C(C)=O)c2I)c(I)c(C(=O)O)c1I [Compound 16, 2,4,6-triiodo-3-N-methylcarbamyl-5-[2,4,6-triiodo-3-N-methylacetamido-5-(2,4,6-triiodo-3-N-methylcarbamyl-5-acetamido-benzoyl)glycylamino-benzoyl]-glycylamino-benzoic acid]	250 mosm/kg	–	–	–	Peripheral vasodilatation, femoral rate of flow (femoral artery; in vivo): +; Biliary clearance in cat, i.v. ([2]; in vivo, iv): 0
CNC(=O)c1c(I)c(NC(=O)CNC(=O)c2c(I)c(NC(=O)CNC(=O)c3c(I)c(C(=O)NC)c(I)c(N(C)C(C)=O)c3I)c(I)c(N(C)C(C)=O)c2I)c(I)c(C(=O)O)c1I [Compound 17, 2,4,6-triiodo-3-N-methylcarbamyl-5-[2,4,6-triiodo-3-N-methylacetamido-5-(2,4,6-triiodo-3-N-methylcarbamyl-5-N-methylacetamido-benzoyl)glycyl-aminobenzoyl]-glycyl-amino-benzoic acid]	200 mosm/kg	–	–	–	Peripheral vasodilatation, femoral rate of flow (femoral artery; in vivo): ++; Biliary clearance in cat, i.v. ([2]; in vivo, iv): 0
CNC(=O)c1c(I)c(NC(=O)CNC(=O)c2c(I)cc(I)c(N(C)C(C)=O)c2I)c(I)c(C(=O)O)c1I [Compound 18, 2,4,6-triiodo-3-N-methylcarbamyl-5-(2,4,6-triiodo-3-N-methylacetamido-benzoyl-glycyl)-amino-benzoic acid]	390 mosm/kg	–	++++	++++	–
CNC(=O)c1c(I)c(C(=O)NCC(=O)Nc2c(I)cc(I)c(C(=O)O)c2I)c(I)c(N(C)C(C)=O)c1I [Compound 19, 2,4,6-triiodo-5-(2,4,6-triiodo-3-N-methylcarbamyl-5-N-methylacetamido-benzoyl) glycylamino-benzoic acid]	500 mosm/kg	4 grams I/kg	++++	++++	–
CC(=O)Nc1c(I)c(NC(=O)CNC(=O)c2c(I)c(NC(C)=O)c(I)c(N(C)C(C)=O)c2I)c(I)c(C(=O)O)c1I [Compound 20, 2,4,6-triiodo-3-acetamido-5-(2,4,6-triiodo-3-N-methylacetamido-5-acetamido-benzoyl)-glycylaino-benzoic acid]	755 mosm/kg	–	–	–	Acute toxicity in mice, i.v. (mice; 28 and 38% I, Na salt): 7.5 grams I/kg; Peripheral vasodilatation, femoral rate of flow (femoral artery; 1.5 ml into collateral of femoral artery, 28 and 38% I, Na salt): +
CNC(=O)c1c(I)c(NC(C)=O)c(I)c(C(=O)NCC(=O)N(C)c2c(I)cc(I)c(C(=O)O)c2I)c1I [Compound 21, 2,4,6-triiodo-3-(2,4,6-triiodo-3-N-methylcarbamyl-5-acetamido-benzoyl)glycyl-N-methylamino-benzoic acid]	580 mosm/kg	–	–	–	Acute toxicity in mice, i.v. (mice; 20% I, Mgl salt): 4-5 grams I/kg; Peripheral vasodilatation, femoral rate of flow (femoral artery; 1.5 ml into collateral of femoral artery, 20% I, Mgl salt): ++++; Biliary clearance in cat, i.v. ([2]; i.v., 0.10 g I/kg, 20% I, Mgl salt): +++
CNC(=O)c1c(I)c(C(=O)NC(C)C(=O)Nc2c(I)cc(I)c(C(=O)O)c2I)c(I)c(N(C)C(C)=O)c1I (stereo not drawn) [Compound 23, 2,4,6-triiodo-3-(2,4,6-triiodo-3-N-methyl-carbamyl-5-N-methylacetamido-benzoyl)-α-aminoproionylamino-benzoic acid]	535 mosm/kg	3.5 grams I/kg	+++	++++	–
CNC(=O)c1c(I)c(C(=O)NCC(=O)Nc2c(I)c(NC(C)=O)c(I)c(C(=O)O)c2I)c(I)c(N(C)C(C)=O)c1I [Compound 25, 2,4,6-triiodo-3-acetamido-5-(2,4,6-triiodo-3-N-methylcarbamyl-5-N-methylacetamido-benzoyl)glycylamino-benzoic acid]	925 mosm/kg	–	–	–	Acute toxicity in mice, i.v. (mice; 34% I, Na salt): 9 grams I/kg; Peripheral vasodilatation, femoral rate of flow (femoral artery; 1.5 ml into collateral of femoral artery, 34% I, Na salt): ++; Biliary clearance in cat, i.v. ([2]; i.v., 0.10 g I/kg, 34% I, Na salt): 0
CNC(=O)c1c(I)c(NC(=O)CNC(=O)c2c(I)c(NC(=O)C(O)C(O)C(O)C(O)CO)c(I)c(C(=O)NC)c2I)c(I)c(C(=O)O)c1I (centres unmarked) [Compound 35, 2,4,6-triiodo-3-N-methylcarbamyl-5-(2,4,6-triiodo-3-N-methylcarbamyl-5-gluconylamino-benzoyl)glycylamino-benzoic acid]	–	8 grams I/kg	+	0	–
CNC(=O)c1c(I)c(NC(=O)C(O)C(O)C(O)C(O)CO)c(I)c(C(=O)NCC(=O)Nc2c(I)c(C(=O)O)c(I)c(C(=O)NCCO)c2I)c1I (centres unmarked) [Compound 36, 2,4,6-triiodo-3-hydroxyethylcarbamyl-5-(2,4,6-triiodo-3-N-methylcarbamyl-5-glyconylamino-benzoyl) glycylamino-benzoic acid]	–	8 grams I/kg	++	0	–
CNC(=O)c1c(I)c(NC(C)=O)c(I)c(C(=O)NCC(=O)N(C)c2c(I)c(C(=O)O)c(I)c(C(=O)NCCO)c2I)c1I [Compound 38, 2,4,6-triiodo-3-N-hydroxyethylcarbamyl-5-(2,4,6-triiodo-3-N-methylcarbamyl-5-acetamido-benzoyl)-glycyl-N-methylamino-benzoic acid]	635 mosm/kg	–	–	–	–
CC(=O)Nc1c(I)c(NC(C)=O)c(I)c(C(=O)O)c1I [d, 2,4,6-Triiodo-3,5-bis-(acetamido)-benzoic acid, reference compound]	–	–	–	–	Acute toxicity in mice, i.v. (mice; 38% I, mixed Mgl and Na salt): 5.7 grams I/kg; Peripheral vasodilatation, femoral rate of flow (femoral artery; in vivo): +++; Biliary clearance in cat, i.v. ([2]; i.v., 0.10 g I/kg, 38% I, mixed Mgl and Na salt): 0
O=C(CCCCC(=O)Nc1c(I)cc(I)c(C(=O)O)c1I)Nc1c(I)cc(I)c(C(=O)O)c1I [e, 3,3'-Adipoyldiimino-bis(2,4,6-triiodobenzoic) acid, reference compound]	–	2 grams I/kg	++++	–	Biliary clearance in cat, i.v. ([2]; in vivo, iv): ++++
